Legend:
TEM-1 = target: T1, TEM-1 (Escherichia coli, UniProt P62593); assay: thermal denaturation with right-angle/static light scattering (aggregation) in presence of beta-lactamase inhibitors; type: biochemical, E. coli
T1 construct: DNA TEM (870 bp) or SHV (894 bp) were each sub-cloned into a PUC57 vector cloning site NdeI/XhoI; His-tag (N); TEV cleavage site (N); made in house; host or cells: E. coli BL21 (DE3)
Text: (FIG. 1E) Heat denaturation of TEM-1 monitored by intrinsic fluorescence plotted as the BaryCentric Mean (BCM) of the fluorescence emission spectrum in the presence (red) and absence (blue) of tazobactam. […] (FIG. 1F) Temperature-dependent evolution of the Right-Angle Light Scattering (RALS) intensity measured simultaneously with the data in FIG. 1G to monitor protein aggregation. […] (FIGS. 1G, 1H, 1I, and 1J) Same data as in FIG. 1F, but showing a dose-titration of different beta-lactamase inhibitors: tazobactam (FIG. 1G), clavulanate (FIG. 1H), vaborbactam (FIG. 1I) and avibactam (FIG. 1J). Each curve a single experiment, which was repeated in triplicate.
Then, we performed a thermal denaturation whilst simultaneously monitoring the intrinsic fluorescence as a measure of the folding status of the molecule (FIG. 1E), and the static light scattering as a measure of aggregation (FIG. 1F).

SHV-11 = target: T2, SHV-11 (Klebsiella pneumoniae, UniProt P0AD64); assay: thermal denaturation with light scattering (aggregation) in presence of excess tazobactam; type: biochemical; details: SHV-11, excess of tazobactam
T2 construct: DNA TEM (870 bp) or SHV (894 bp) were each sub-cloned into a PUC57 vector cloning site NdeI/XhoI; His-tag (N); TEV cleavage site (N); made in house; host or cells: E. coli BL21 (DE3)
T2 sequence (P0AD64 22-286 L31Q): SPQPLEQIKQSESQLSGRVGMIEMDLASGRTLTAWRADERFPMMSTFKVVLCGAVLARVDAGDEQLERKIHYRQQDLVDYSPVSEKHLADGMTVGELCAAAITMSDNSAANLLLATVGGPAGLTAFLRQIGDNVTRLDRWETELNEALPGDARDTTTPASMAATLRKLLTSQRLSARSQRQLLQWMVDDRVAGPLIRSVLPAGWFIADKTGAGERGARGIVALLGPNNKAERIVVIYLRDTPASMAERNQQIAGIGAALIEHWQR

[1] = test system: TEM variants (TEM15, TEM30, TEM52, TEM10, TEM155); assay: aggregation (RALS temperature ramp) of recombinant TEM variants in presence and absence of tazobactam; type: biochemical; details: presence versus absence of tazobactam
Text: FIGS. 2A-2M. (FIG. 2A) TEM mutations and their effects on stability (total energy) as predicted by FoldX. […] Dashed line indicates a total energy difference of 0.5 kcal/mol, the FoldX cut-off above which mutations are considered to be destabilizing. (FIG. 2B) Barplot mapping mutations in (FIG. 2A) to the TEM sequence and indicating occurrence. […] The bar heights correspond to the number of times a mutation occurs across different TEM variants (right-hand y-axis). The color coding is identical to that in (FIG. 2A). Red line indicates the TANGO scores (indicated on the left-hand y-axis), with peaks corresponding to APRs. (FIG. 2C) Mapping of mutations in (FIG. 2A) and (FIG. 2B) to the TEM structure (pdb 1xpb). Protein surface is shown in gray, color coding of mutations is identical to (FIG. 2A) and (FIG. 2B). (FIGS. 2D, 2E, and 2F) Temperature-dependent evolution of the Right-Angle Light Scattering (RALS) intensity during a temperature ramp, similar as in FIG. 1F for key mutants of TEM1, namely TEM-10 (FIG. 2D), TEM-30 (FIG. 2E) and TEM-155 (FIG. 2F). Experiments were shown in triplicate, single repeat is shown. (FIG. 2G) Schematic representation of the structure of the peptides. APR—Aggregation Prone Region, R—Arginine. (FIG. 2H) Ribbon representation of the superposition of the crystal structures of TEM (green, pdb id 1bt5) and SHV (blue, pdb id 1shv). […]

[2] = test system: uro-pathogenic E. coli strain (UPEC strain blaTEM-1); assay: mouse Urinary Tract Infection (UTI) model; type: in vivo; details: 30 mg/kg ampicillin plus 10 mg/kg test substance; 24 h
Procedure: FIGS. 4A-4K. […] IV—Intravenous, IP—Intraperitoneal, SC—Subcutaneously. The data shown is from a single experiment with 4 animals per group. […] (ns—non significant, #—P>0.05, *—P≤0.05, ***—P≤0.01, ****—P≤0.001). (FIG. 4G) FICI plot as in FIG. 2, for the E. coli strains indicated and the combination of penicillin and the TEM3.2 peptide. […] (FIG. 4J) Same as FIG. 4H for peptide BGAL. (FIG. 4K) Same as FIG. 4H for peptide P33.
Vehicle alone (0.9% NaCl) was also administered (IV).
To test the efficacy of the peptides, urinary tract infection model was performed as described previously^65. Briefly, female C57BL/6Jax mice female mice were deprived from water for at least one hour. […] Mice were slowly inoculated urethrally with 50 μL of a bacterial suspension slowly (10^8 CFU/mouse) using a sterile catheter (The plastic intravenous cannula of the paediatric intravenous-access cannula (GS391350) in the bladder over 5 s in order to avoid vesicoureteral reflux. The catheter was then removed directly after inoculation. After surgery, the animals were visually monitored for full recovery. After 1 h post-inoculation, all mice received ampicillin (30 mg/kg_PO-orally) and at the same time 3 groups of animals received the peptides via different administration routes (10mg/kg_IV—Intravenous; IP—Intraperitoneal or SC—sub-cutaneous) and the positive control groups received tazobactam (10 mg/Kg, PO). […]

E. coli strain UZ_TEM104 = type: cell-based; details: additive at fixed 50 μg/mL

T1 sequence (P62593 24-286 limits assumed): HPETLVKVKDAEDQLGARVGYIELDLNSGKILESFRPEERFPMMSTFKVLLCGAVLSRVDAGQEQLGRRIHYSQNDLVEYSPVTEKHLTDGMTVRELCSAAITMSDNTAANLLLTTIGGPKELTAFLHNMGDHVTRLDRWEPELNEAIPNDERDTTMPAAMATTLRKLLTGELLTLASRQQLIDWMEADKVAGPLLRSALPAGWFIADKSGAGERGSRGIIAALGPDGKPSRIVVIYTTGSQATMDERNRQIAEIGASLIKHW

## C[C@]1(Cn2ccnn2)[C@H](C(=O)O)N2C(=O)C[C@H]2S1(=O)=O [tazobactam]
TEM-1; TEM-1, dose titration of inhibitor
  aggregation of the enzyme (static light scattering), dose-response: reduce the aggregation of the enzyme in a dose-responsive manner
TEM-1; TEM-1, excess of tazobactam, more marked than for SHV-11
  aggregation onset temperature Tagg: increase
SHV-11
  aggregation onset temperature Tagg: increase
[1]
  effect of tazobactam on aggregation of TEM variants: pharmacological chaperone effect
[2]
  best reduction of the bacterial load (up to): 1.8 log folds
E. coli strain UZ_TEM104
  reduction of the MIC of penicillin G: 4 fold

Source: patent US20240165196A1, “Beta-Lactamase Inhibitors” (VIB VZW, priority 2021, published 2024)
